# Several values for one entry are separate records, joined by “and”; a condition that tells them apart may be missing. Identical values can stand only once.
# Test system: 439559-082-T-J2-PDC spheroids viability
# Experiment: Anticancer human tumor 439559-082-T-J2-PDC patient-derived colon adenocarcinoma cell line growth inhibition [GQUAD]
# Conditions: for viability, T/C: stronger effect = lower value
# Excerpt: DNA G-quadruplex Stabilizer Agents in Combinations in Complex Spheroids
# A high-throughput screen of multi-cell type tumor spheroids was designed to identify active combinations of DNA G-quadruplex stabilizer agents and targeted small molecules. Complex spheroids include a stromal component modeled by human endothelial cells (HUVEC) and fibroblasts modeled by human mesenchymal stem cells (MSCs). The concentration ranges selected for each drug and investigational agent were based upon clinically achievable concentrations if the clinical Cmax of the agent was known.
# Compounds. The drugs and investigational agents: pidnarulex (CX-5461; NSC782164), APTO-253 (NSC789042), BRACO-19 (NSC847499), peposertib (NSC802822), ceralasertib (NSC780249), elimusertib (NSC800525), camonsertib (NSC841442), AZD-1390 (NSC803789), olaparib (NSC753686), talazoparib (NSC767125), ART-558 (NSC835418), sotorasib (NSC818433), MRTX-1133 (NSC836407), SN-38 (NSC673596), topotecan (NSC609699), etoposide (NSC141540), doxorubicin (NSC123127), gemcitabine (NSC613327), 5-fluorouracil (NSC19893), paclitaxel (NSC125973), vemurafenib (NSC761431), panobinostat (NSC761190), R-306465 (JNJ-16241199; NSC773264), adavosertib (NSC754352), TP-3654 (NSC805149), carboplatin (NSC241240), KSQ-4279 (NSC840948), and staurosporine (NSC755774) were obtained from the National Cancer Institute (NCI) Developmental Therapeutics Program Chemical Repository (34). The FDA-approved anticancer drug set is available from the NCI Developmental Therapeutics Program. […] The stock solutions were prepared in dimethyl sulfoxide (DMSO, Sigma-Aldrich, St. Louis, MO, cat. D2650) at 800-fold the tested concentration and stored at -70 degrees C prior to their use. All drugs and investigational agents were tested over a range starting from a high concentration at or near the clinical Cmax and decreasing in half-log increments. If the clinical Cmax for an agent had not been determined, the highest concentration tested was 10 microM.
# 2.3 Cell Culture. All cells were maintained in an incubator at 37 degrees C and 5% CO2 with 95% humidity. The PDC lines were cultured according to standard operating procedures established by the NCI PDMR. All PDCs were thawed and cultured in Matrigel-coated flasks prepared with a working solution of 1X Ham's F-12 nutrient mix, without supplementation (Invitrogen, cat. 11765054), 100 U/mL penicillin-streptomycin (Invitrogen, cat. 15140122), and 2.5% Matrigel (Corning Inc., cat. 354248) for the first three passages. The 857933-349-R-J2-PDC line was cultured in 6C/Colon 1B media, which includes advanced DMEM/F-12 (Thermo Fisher Scientific, cat. 12634028), 10 mM HEPES (Thermo Fisher Scientific, cat. 15630080), 1X GlutaMAX supplement (Thermo Fisher Scientific, cat. 35050061), 0.1 mg/mL primocin (InvivoGen, cat. ant-pm-2), 10% defined fetal bovine serum, heat inactivated (HyClone Laboratories Inc., cat. SH30070.03HI), 50% L-WRN conditioned media (ATCC, cat. CRL-3276), 1.25 mM N-Acetyl-L-cysteine (Sigma-Aldrich, cat. A9165), 10 mM nicotinamide (Sigma-Aldrich, cat. N0636), 1X B-27 supplement (Thermo Fisher Scientific, cat. 17504044), 1X N-2 supplement (Thermo Fisher Scientific, cat. 17502048), 10 microM Y-27632 dihydrochloride (Tocris Bioscience, cat. 1254), and 50 ng/mL human EGF recombinant protein (Thermo Fisher Scientific, cat. PHG0311). The 485176-168-R4-J1-PDC line was cultured in Panc media, which includes all 6C/Colon 1B media components plus 100 ng/mL human FGF-10 (Thermo Fisher Scientific, cat. 100-26), 500 nM SB-431542 (Selleckchem, cat. S1067), and gastrin (Tocris, cat. 3006).
# […]
# 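Also: spheroids exposed to the agents for 7 days before readout.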
# 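For viability, T/C in this document: percent of luminescence signal in DMSO vehicle wells taken as 100% viability.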
structure (smiles),measurement,setting,value
Cn1ncnc1[C@H]1c2n[nH]c(=O)c3cc(F)cc(c23)N[C@@H]1c1ccc(F)cc1 + Cc1[nH]c2ccc(F)cc2c1-c1nc2c3cccnc3c3ncccc3c2[nH]1,IC50,"curve of first compound, second compound 0.0316 µM",> 316 nM
same,IC50,"curve of first compound, second compound 0.1 µM",> 316 nM
same,IC50,"curve of first compound, second compound 0.316 µM",> 316 nM
same,IC50,"curve of first compound, second compound 1 µM",> 316 nM
same,IC50,"curve of first compound, second compound 3.16 µM",> 316 nM
same,IC50,"curve of first compound, second compound 10 µM",> 316 nM
same,"viability, T/C","second compound 0.0316 µM, first compound 0.000999 µM",105%
same,"viability, T/C","second compound 0.0316 µM, first compound 0.00316 µM",93.7%
same,"viability, T/C","second compound 0.0316 µM, first compound 0.00999 µM",97.2%
same,"viability, T/C","second compound 0.0316 µM, first compound 0.0316 µM",89.4%
same,"viability, T/C","second compound 0.0316 µM, first compound 0.0999 µM",90.4%
same,"viability, T/C","second compound 0.0316 µM, first compound 0.316 µM",92.1%
same,"viability, T/C","second compound 0.1 µM, first compound 0.000999 µM",103%
same,"viability, T/C","second compound 0.1 µM, first compound 0.00316 µM",105%
same,"viability, T/C","second compound 0.1 µM, first compound 0.00999 µM",93.6%
same,"viability, T/C","second compound 0.1 µM, first compound 0.0316 µM",93.5%
same,"viability, T/C","second compound 0.1 µM, first compound 0.0999 µM",90%
same,"viability, T/C","second compound 0.1 µM, first compound 0.316 µM",88.9%
same,"viability, T/C","second compound 0.316 µM, first compound 0.000999 µM",113%
same,"viability, T/C","second compound 0.316 µM, first compound 0.00316 µM",99%
same,"viability, T/C","second compound 0.316 µM, first compound 0.00999 µM",99.6%
same,"viability, T/C","second compound 0.316 µM, first compound 0.0316 µM",93.4%
same,"viability, T/C","second compound 0.316 µM, first compound 0.0999 µM",97.2%
same,"viability, T/C","second compound 0.316 µM, first compound 0.316 µM",85.8%
same,"viability, T/C","second compound 1 µM, first compound 0.000999 µM",87.3%
same,"viability, T/C","second compound 1 µM, first compound 0.00316 µM",98.5%
same,"viability, T/C","second compound 1 µM, first compound 0.00999 µM",92%
same,"viability, T/C","second compound 1 µM, first compound 0.0316 µM",94.1%
same,"viability, T/C","second compound 1 µM, first compound 0.0999 µM",99.2%
same,"viability, T/C","second compound 1 µM, first compound 0.316 µM",84%
same,"viability, T/C","second compound 3.16 µM, first compound 0.000999 µM",79.6%
same,"viability, T/C","second compound 3.16 µM, first compound 0.00316 µM",87.5%
same,"viability, T/C","second compound 3.16 µM, first compound 0.00999 µM",77.3%
same,"viability, T/C","second compound 3.16 µM, first compound 0.0316 µM",85.7%
same,"viability, T/C","second compound 3.16 µM, first compound 0.0999 µM",81.8%
same,"viability, T/C","second compound 3.16 µM, first compound 0.316 µM",76.2%
same,"viability, T/C","second compound 10 µM, first compound 0.000999 µM",85.7%
same,"viability, T/C","second compound 10 µM, first compound 0.00316 µM",86.7%
same,"viability, T/C","second compound 10 µM, first compound 0.00999 µM",72.3%
same,"viability, T/C","second compound 10 µM, first compound 0.0316 µM",85.8%
same,"viability, T/C","second compound 10 µM, first compound 0.0999 µM",82%
same,"viability, T/C","second compound 10 µM, first compound 0.316 µM",61.8%
Cc1cnc(CNC(=O)c2c(=O)c3ccc(N4CCCN(C)CC4)nc3n3c2sc2ccccc23)cn1,"viability, T/C",compound 0.0316 µM,98.7% [middle of 12 runs]
same,"viability, T/C",compound 0.1 µM,93% [middle of 12 runs]
same,"viability, T/C",compound 0.316 µM,88.6% [middle of 12 runs]
same,"viability, T/C",compound 1 µM,81.6% [middle of 12 runs]
same,"viability, T/C",compound 3.16 µM,75.7% [middle of 12 runs]
same,"viability, T/C",compound 10 µM,75.7% [middle of 12 runs]
same,IC50,"compound alone, run of 04/16/2024",> 10000 nM
C=CCn1c(=O)c2cnc(Nc3ccc(N4CCN(C)CC4)cc3)nc2n1-c1cccc(C(C)(C)O)n1,"viability, T/C",compound 0.0316 µM,109% and 94.2% and 108%
same,"viability, T/C",compound 0.1 µM,91.1% and 90.4% and 90.3%
same,"viability, T/C",compound 0.316 µM,86.3% and 89.2% and 88%
same,"viability, T/C",compound 1 µM,104% and 78.4% and 93.7%
same,"viability, T/C",compound 3.16 µM,110% and 62.9% and 53.1%
same,"viability, T/C",compound 10 µM,43.5% and 20.1% and 21.9%
same,IC50,curve of compound,8760 nM and 4360 nM and 3550 nM
O=C(NO)c1cnc(N2CCN(S(=O)(=O)c3ccc4ccccc4c3)CC2)nc1,"viability, T/C",compound 0.0316 µM,84.3% and 92.9% and 85.8%
same,"viability, T/C",compound 0.1 µM,81.2% and 79.9% and 84.2%
same,"viability, T/C",compound 0.316 µM,84% and 62.6% and 64.7%
same,IC50,curve of compound,1760 nM and 401 nM and 438 nM

# Source: PubChem BioAssay AID2060510 (Molecular Pharmacology Branch, DTP, NCI, 2025)
